Consider three compounds from US12186283B2, “Bismuth-thiol compositions and methods of use” (Microbion Corporation, priority 2018, dated 2025).

Where only a bound is given, the exact number is not on record here.

Data set [1] relates to S. pneumoniae (pneumococci). As to the kind of experiment: Broth microdilution MIC (Example 11). The conditions noted are these: pneumococci incl. multi-drug resistant. Type of data set: cell-based, Streptococcus pneumoniae. (Dilution methods test growth across graded concentrations, often in twofold steps.)
Data set [2] deals with anaerobes (Bacteroides fragilis and Clostridium difficile). As to the kind of experiment: Agar dilution MIC (Example 11), group statement. The conditions noted are these: B. fragilis and C. difficile QC isolates, C. difficile ribotypes incl. 027. Type of data set: cell-based. The protocol: The test agents were stored at room temperature until assayed. All test agents were suspended and diluted in 100% dimethylsulfoxide (DMSO), and were ultimately tested at a final concentration of 0.06-64 μg/mL.
The susceptibility of anaerobic bacteria was determined by agar dilution using Brucella Agar (BD/BBL; Lot No. 5237692) supplemented with 5 μg/mL hemin (Sigma, St. Louis, MO; Lot No. 108K1088), 1 μg/mL Vitamin K1 and 5% (v/v) laked sheep blood (Cleveland Scientific, Bath, OH; Lot No. 322799).
MIC values for anaerobic bacteria were determined using a reference agar dilution method as described by CLSI (6). Organisms were grown at 35° C. in the Bactron II Anaerobic Chamber (Shel Lab, Cornelius, OR) for approximately 48 hr prior to the assay. Drug dilutions and drug-supplemented agar plates were prepared manually per CLSI (6). The plates were allowed to stand at room temperature for 1 hr to allow the agar surface to dry and pre-reduced for approximately 1 hr in the anaerobe chamber prior to inoculation. Each isolate was suspended to the equivalent of a 0.5 McFarland standard in Brucella broth using a turbidity meter (Dade Behring MicroScan, West Sacramento, CA). Each bacterial cell suspension was then diluted 1:10 in Brucella broth and transferred to wells in a stainless steel replicator block which was used to inoculate the test plates. […] The MIC was read per CLSI guidelines (6).
Background: Agar dilution tests growth on a series of plates holding different concentrations.

A further data set relates to M. avium. As to the kind of experiment: MIC against CF isolates (Example 5). Type of data set: cell-based. The following applies: Mycobacterium avium, strain MAC101, M. avium, MAC reference strain, blood isolate from HIV patient.
The subject of data set [3] is S. aureus ATCC 29213. The conditions noted are these: CLSI established QC range; cited from earlier work.
Data set [4] in a line: Rat single-dose PK: lung tissue BisEDT. The conditions noted are these: for concentration at 24 h / concentration at 96 h: F344, rat, inhaled, 100 μg/kg.
Data set [5] in a line: Phase 1 human clinical studies, topical administration. Type of data set: in vivo. The conditions noted are these: humans.
Data set [6] relates to S. aureus ATCC 29213. The conditions noted are these: S. aureus ATCC 29213, QC organism; cited from earlier work.
The nature of data set [7]: Rat tolerance of BisEDT (inhalation, IV, oral). The following applies: 100 μg/kg inhalation and IV and 250 μg/kg oral, single dose.
Data set [8] can be described thus: Particle size distribution of BisEDT microparticles. Type of data set: physicochemical. The following applies: microparticles resuspended in 2% poloxamer 188, Nanosizer/Zetasizer Nano-S. The protocol: The dried particulate matter was characterized to assess the particle size properties. Briefly, microparticles were resuspended in 2% poloxamer 188 (Pluronic® F-68) (BASF, Mt. Olive, NJ) and the suspension was sonicated for 10 minutes in a water bath sonicator at standard setting prior to analysis using a Nanosizer/Zetasizer Nano-S particle analyzer (model ZEN1600 (without zeta-potential measuring capacity), Malvern Instruments, Worcestershire, UK) according to the manufacturer's recommendations.
It was observed that careful control of the reaction temperature and the rate of 1,2 ethanedithiol addition had pronounced impact on the BisEDT particle size distribution.

The next data set relates to P. aeruginosa. As to the kind of experiment: Checkerboard FIC assay, BisEDT with CF agents (Example 10). It counts as cell-based, Pseudomonas aeruginosa. The conditions noted are these: agent alone, as observed during FIC testing.
Data set [9] has as its system Burkholderia cepacia complex. The data set is described as above. Type of data set: cell-based, Burkholderia spp. The following applies: agent alone, as observed during FIC testing.

For the compound `CC(S)C(C)S.[Bi]` (stereo not shown) [BisBDT, bismuth-2,3-butanedithiol], the “MIC values (range across isolates)” value in data set [1] was in the range of 0.5 to 8 µg/mL; in data set [2], 1 to 4 µg/mL. Moreover, the MIC against M. avium is 1 µg/mL.
Turning to `C1C[S][Bi]([S]CC[S][Bi]2[S]CC[S]2)[S]1` [BisEDT, bismuth-1,2-ethanedithiol], the “QC Range 24 hr” value in the data set on S. aureus ATCC 29213 [3] is reported as 0.12-1. Besides, the concentration at 24 h in [4] (lung fluid) was 123 µg/mL; in data set [4] (lung tissue), 4090 ng/g. Besides, the concentration at 96 h was 78 µg/mL in [4] (lung fluid) and 2600 ng/g in [4] (lung tissue). Further, the “half-life of lung levels” value in data set [4] (rat, IV dosing) was “about 24 hour”. For the same compound, in data set [4] (rat, IV dosing 100 μg/kg), the “lung levels relative to inhalation group” value is given as < 5%. Further, in data set [4] (rat, oral dosing 250 μg/kg), the lung levels result is reported as “no lung levels”. The lung tissue half-life entry in data set [4] (rat, single inhalation dose (100 μg/kg lung deposited)) is given as “about 4 days”. The “Mean BisEDT Conc, lung at sacrifice” value came to 4.8 ng/g in data set [4] (rat, single inhaled dose 47 μg/kg, sac time 30 hr); 5.9 ng/g in data set [4] (rat, single inhaled dose 124 μg/kg, sac time 30 hr); 12.1 ng/g in [4] (rat, single inhaled dose 400 μg/kg, sac time 30 hr); 82.3 ng/g in [4] (rat, single inhaled dose 3000 μg/kg, sac time 24 hr). For the same compound, the concentration well-tolerated result in [5] (administered topically for 6 hours) is “up to 2500 μg/cm^2”. In data set [5] (topical, over 21 days continuous exposure to normal and abraded skin), the concentration tolerated entry was “up to 75 μg/cm^2”. The “MIC, QC range” value in the data set with S. aureus ATCC 29213 [6] is “(0.12-1) μg/mL”. For the same compound, the tolerability result in data set [7] is “tolerated”. Further, in data set [8], the “peak VMD” value is given as “about 1.3 microns”.
Turning to `C[C@@H](O)[C@H]1C(=O)N2C(C(=O)O)=C(S[C@@H]3CN[C@H](C(=O)N(C)C)C3)[C@H](C)[C@H]12` [MEM], the MIC with P. aeruginosa (P. aeruginosa isolate 6322) came out at 16 µg/mL; in the data set with P. aeruginosa (P. aeruginosa isolate 6977) it was 8 µg/mL; with P. aeruginosa (P. aeruginosa isolate 7745) it was 16 µg/mL; with P. aeruginosa (P. aeruginosa isolate 8798) it was 32 µg/mL; in the data set with P. aeruginosa (P. aeruginosa isolate 9108), 1 µg/mL; in data set [9] (B. cenocepacia isolate 0548) it was 4 µg/mL. For the same compound, the MIC in [9] (B. cenocepacia isolate 0813) is 2 µg/mL; in [9] (B. cepacia isolate 0546), 4 µg/mL; in [9] (B. cepacia isolate 1793), 4 µg/mL; in [9] (B. multivorans isolate 1795), 4 µg/mL.
